According to US20120095108A1, “COMPOSITION CONTAINING MICROBIAL ZEAXANTHIN AND PREPARATION THEREOF” (Vigenent Inc., priority 2010, published 2012):

Legend:
Format in all cases: cell-based
[1] = tested on: pancreatic adenocarcinoma (BxPC-3); test: Anti-proliferation MTT assay, BxPC-3; settings: Homo sapiens, 24 hrs, read-out: cell viability
Experimental: (§1) Cancer cells were cultured on a dish, and the cells were treated with microbial zeaxanthin dissolved in dimethyl sulfoxide. After 24 hrs incubation, thiazolyl blue tetrazolium bromide was added to the cells and incubated for 4 hours. The medium was removed and the crystals were dissolved in dimethyl sulfoxide followed by measuring the absorbance at 590 nm. Cell viability=(Abs of cell treated zeaxanthin/Abs of cell with no treatment)*100%. Since xanthophylls have been reported to be associated with lower risk of cancers (Orjuela et al., (2005) Cancer Epidemiol Biomarkers Prey. 14:1433-40; Kelemen et al., (2006) Am J Clin Nutr. 83: 1401-10; Zhang et al., (2007) Nutr Cancer. 59:46-53; Tamimi et al., (2009) Cancer Res. 69: 9323-9; Lee et al., (2009) Cancer Epidemiol Biomarkers Prey. 18:1730-9), it is necessary to determine if the microbial zeaxanthin contains anti-cancer activity. […] For comparison, the cell viabilities of non-cancer cells are 105.6% for retinal pigmented epithelium cell (ARPE-19); 102.3% for embryonic fibroblast (BCRC60118) and 95.8% for human skin fibroblast (BCRC 60153). […] For comparison, the cell viabilities of non-cancer cells are 124.2% for retinal pigmented epithelium cell (ARPE-19); 101.2% for embryonic fibroblast (BCRC60118) and 99.8% for human skin fibroblast (BCRC 60153). […]

[2] = tested on: gastric adenocarcinoma (AGS); test: Anti-proliferation MTT assay, AGS; settings: Homo sapiens, 24 hrs, read-out: cell viability
Experimental: as §1

[3] = tested on: prostate carcinoma (PC-3); test: Anti-proliferation MTT assay, PC-3; settings: Homo sapiens, 24 hrs, read-out: cell viability
Experimental: as §1

[4] = tested on: breast adenocarcinoma (MCF7); test: Anti-proliferation MTT assay, MCF7; settings: Homo sapiens, 24 hrs, read-out: cell viability
Experimental: as §1

[5] = MTT assay, non-cancer cells ARPE-19; settings: human, ARPE-19 retinal pigmented epithelium cells (non-cancer), read-out: cell viability of non-cancer cells
Experimental: as §1

[6] = MTT assay, non-cancer cells BCRC 60153; settings: human, skin fibroblast cells BCRC 60153 (non-cancer), read-out: cell viability of non-cancer cells
Experimental: as §1

[7] = tested on: thyroid squamous cell carcinoma (SW579); test: Anti-proliferation MTT assay, SW579; settings: Homo sapiens, 24 hrs
Experimental: as §1

[8] = tested on: colorectal adenocarcinoma (LS123); test: Anti-proliferation MTT assay, LS123; settings: Homo sapiens, 24 hrs, read-out: cell viability
Experimental: as §1

[9] = tested on: choriocarcinoma (JAR); test: Anti-proliferation MTT assay, JAR; settings: Homo sapiens, 24 hrs, read-out: cell viability
Experimental: as §1

[10] = MTT assay, non-cancer cells BCRC60118; settings: human, embryonic fibroblast cells BCRC60118 (non-cancer), read-out: cell viability of non-cancer cells
Experimental: as §1

[11] = tested on: bladder primary carcinoma (5637); test: Anti-proliferation MTT assay, 5637; settings: Homo sapiens, 24 hrs, read-out: cell viability
Experimental: as §1

[12] = tested on: ovarian cancer (TOV-112D); test: Anti-proliferation MTT assay, TOV-112D; settings: Homo sapiens, TOV112D, 24 hrs, read-out: cell viability
Experimental: as §1

[13] = tested on: pharynx squamous cell carcinoma (FaDu); test: Anti-proliferation MTT assay, FaDu; settings: Homo sapiens, 24 hrs
Experimental: as §1

For CC1=C(/C=C/C(C)=C/C=C/C(C)=C/C=C/C=C(C)/C=C/C=C(C)/C=C/C2=C(C)C[C@@H](O)CC2(C)C)C(C)(C)C[C@H](O)C1 (stereo in doubt) [microbial zeaxanthin, 4-[18-(4-hydroxy-2,6,6-trimethyl-1-cyclohexenyl)-3,7,12,16-tetramethyl-octadeca-1,3,5,7,9,11,13,15,17-nonaenyl]-3,5,5-trimethyl-cyclohex-3-en-1-ol], the viability at 30 µg/mL ([1]; 30 μg/ml) was 75.6%, the viability at 60 µg/mL ([1]; 60 μg/ml) was 33.4% and the viability at 30 µg/mL ([2]; 30 μg/ml) was 57.3%. It also gave a viability at 60 µg/mL ([2]; 60 μg/ml) of 40.1%, a viability at 30 µg/mL ([3]; 30 μg/ml) of 74% and a viability at 60 µg/mL ([3]; 60 μg/ml) of 67.7%. The viability at 30 µg/mL ([4]; 30 μg/ml) was 78.7%, the viability at 60 µg/mL ([4]; 60 μg/ml) was 61.6% and the viability at 24 h, 30 μg/ml ([5]; 30 μg/ml) was 106%. The viability at 24 h, 60 μg/ml ([5]; 60 μg/ml) was 124%, the viability at 24 h, 30 μg/ml ([6]; 30 μg/ml) was 95.8% and the viability at 24 h, 60 μg/ml ([6]; 60 μg/ml) was 99.8%. For the same molecule, the viability at 30 µg/mL ([7]; 30 μg/ml) was 70.9%, the viability at 60 µg/mL ([7]; 60 μg/ml) was 71.7% and the viability at 30 µg/mL ([8]; LS-123, 30 μg/ml) was 72.3%. For the same molecule, the viability at 60 µg/mL ([8]; LS-123, 60 μg/ml) was 75.3%, the viability at 30 µg/mL ([9]; 30 μg/ml) was 72.1% and the viability at 60 µg/mL ([9]; 60 μg/ml) was 40%. The viability at 24 h, 30 μg/ml ([10]; 30 μg/ml) was 102%, the viability at 24 h, 60 μg/ml ([10]; 60 μg/ml) was 101% and the viability at 30 µg/mL ([11]; 30 μg/ml) was 45.9%. The viability at 60 µg/mL ([11]; 60 μg/ml) was 16.4%, the viability at 30 µg/mL ([12]; 30 μg/ml) was 70.3% and the viability at 60 µg/mL ([12]; 60 μg/ml) was 20.3%. For the same molecule, the viability at 30 µg/mL ([13]; 30 μg/ml) was 72.6% and the viability at 60 µg/mL ([13]; 60 μg/ml) was 28.5%.
